According to patent US20220380341A1, “INHIBITORS OF HIV-1 NEF FOR THE TREATMENT OF HIV DISEASE” (priority 2018, published 2022):
Where “and” joins values, the source holds several entries; their conditions need not be identical. Equal entries are not always repeated. Where two headings read alike, the source gives them in different places.

What was measured:
[1] = system: HIV-1NL4-3; assay: HIV-1 infectivity assay in TZM-bl reporter cell line (LTR-luciferase, 48 h); format: cell-based; conditions: for inhibition at 1 µM: Human immunodeficiency virus 1, TZM-bl
Description: (§1) In particular, the tables show antiretroviral activity as percent inhibition of HIV-1 infectivity at 1 μM. In brief, this assay uses the TZM-bl reporter cell line, which carries a stable copy of the HIV-1 LTR coupled to luciferase. Cells are infected with HIV-1NL4-3 in the presence and absence of each compound, and luciferase activity is measured 48 h later. This assay measures early events in the HIV-1 life cycle, including viral entry, reverse transcription, nuclear entry and integration, and viral transcription. All assays include control cells infected with Nef-defective HIV-1, which replicates at 30-50% of wild-type in this system. Results are normalized to percent inhibition relative to DMSO-treated control cells infected with wild-type HIV-1 (0% inhibition) and DMSO-treated cells infected with Nef-defective HIV-1 (100% of the Nef-dependent effect)—see column 3. In addition, cell viability is measured in the TZM-bl cell line in the presence of each test compound and in the absence of HIV-1 infection, using the Cell Titer Blue cell viability assay (Promega; column 4).

[2] = system: TZM-bl cell line; format: cell-based
Description: as §1

[3] = molecular target: HIV-1 NefNL4-3 (Human immunodeficiency virus type 1 group M subtype B, UniProt P03406, A33V/T15A/T51N/V11I); assay: Surface plasmon resonance binding to recombinant full-length Nef (NL4-3); conditions: for T, minutes (residence time): 2-step induced fit, T = 1/koff2; for RU30/RUNef (extent of binding): response units at 30 μM relative to Nef immobilized on the SPR chip
[4] = Table 1, TZM-bl cells, 1 μM, 48 h, 100% = Nef-defective HIV-1
[5] = Table 1, uninfected TZM-bl cells, 1 μM, Cell Titer Blue
[6] = Table 1, 1:1 Langmuir fit where the KD2 cell says '1 to 1 fitting', else 2-site fit, read-out: Nef NL4-3 Binding, SPR 1:1 or 2-site fitting KD1
[7] = Table 1, 1:1 Langmuir fit where the KD2 cell says '1 to 1 fitting', else 2-site fit
[8] = 1.0 μM, TZM-bl reporter cell line, Table 4, read-out: % Infectivity Inhibition
[9] = 48 h, Table 1, TZM-bl cells, 1 μM, 48 h, 100% = Nef-defective HIV-1, read-out: HIV-1 Infectivity % Inhibition Norm. to Δ-Nef @ 1 μM
[10] = KD, M, Table 4, SPR fit 2-step induced fit, KD = koff/kon × koff2/(koff2 + kon2)
[11] = Nef NL4-3 Binding, SPR 1:1 or 2-site fitting KD2, Table 1, 2-site fit, second component
[12] = Nef NL4-3 Binding, SPR 2-state fitting KD, Table 1, 2-step induced-fit model
[13] = read-out: Nef NL4-3 Binding, SPR 1:1 or 2-site fitting KD2, Table 1, 2-site fit, second component

| Compound | HIV-1 Infectivity % Inhibition Norm. to Δ-Nef @ 1 μM [1, 4] | Percent Viability @ 1 μM (TZM-bl cells) [2, 5] | Kd [3, 6] | Nef NL4-3 Binding, SPR 1:1 or 2-site fitting KD1 [3, 7] | inhibition at 1 µM [1, 8] | inhibition at 1 µM [1, 9] | % Cell Viability ([2]; human, 1 μM) | Percent Viability @ 1 μM (TZM-bl cells) ([2]; human, 1 μM) | Kd [3] | Kd [3, 10] | Kd [3, 11] | Kd [3, 12] | T, minutes (residence time) ([3]; Table 4) | RU30/RUNef (extent of binding) [3] | Kd [3, 13] | Percent Viability @ 1 μM (TZM-bl cells) [2] | Kd ([3]; Table 4, SPR fit 2-step induced fit, KD = koff/kon × koff2/(koff2 + kon2)) | Kd ([3]; read-out: Nef NL4-3 Binding, SPR 1:1 or 2-site fitting KD1, Table 1, 1:1 Langmuir fit where the KD2 cell says '1 to 1 fitting', else 2-site fit) | Kd ([3]; read-out: Nef NL4-3 Binding, SPR 2-state fitting KD, Table 1, 2-step induced-fit model) |
| --- | --- | --- | --- | --- | --- | --- | --- | --- | --- | --- | --- | --- | --- | --- | --- | --- | --- | --- | --- |
| 1-(1H-1,3-benzodiazol-2-yl)-4-[2-(4-fluorophenyl)ethyl]-3-(1-{[2-(1H-pyrrol-1-yl)phenyl]methyl}piperidin-4-yl)-1H-pyrazol-5-ol [Compound I-805] | 33.9% | 93.7% | 596 nM |  |  |  |  |  |  |  |  |  |  |  |  |  |  |  |  |
| 2-{4-[1-(1H-1,3-benzodiazol-2-yl)-4-[2-(4-fluorophenyl)ethyl]-5-hydroxy-1H-pyrazol-3-yl]piperidine-1-carbonyl}benzene-1,3,5-triol [Compound I-729] | 57.2% | 102.4% |  | No Interaction |  |  |  |  |  |  |  |  |  |  |  |  |  |  |  |
| CC(C)(C)OC(=O)N1CCC[C@H]1c1nn(-c2nc3ccccc3[nH]2)c(O)c1CCc1ccc(F)cc1 (stereo in doubt) [Compound I-205, tert-butyl 2-[1-(1H-1,3-benzodiazol-2-yl)-4-[2-(4-fluorophenyl)ethyl]-5-hydroxy-1H-pyrazol-3-yl]pyrrolidine-1-carboxylate] |  |  |  |  | 14.3% | 14.3% | 95.6% | 95.6% | 1090 nM | 208 nM | 1100 nM | 208 nM | 9.98E + 01 minutes | 5.81E- 03 |  |  |  |  |  |
| Oc1c(CCc2ccc(F)cc2)c(-c2ccc(C(F)(F)F)cc2)nn1-c1nc2ccccc2[nH]1 [Compound I-106, 1-(1H-1,3-benzodiazol-2-yl)-4-[2-(4-fluorophenyl)ethyl]-3-[4-(trifluoromethyl)phenyl]-1H-pyrazol-5-ol] |  |  |  |  |  | 98.2% |  | 84.5% | 20200 nM |  | 3260 nM |  |  |  |  |  |  |  |  |
| Oc1c(CCc2ccc(F)cc2)c(C2CCOCC2)nn1-c1nc2ccccc2[nH]1 [Compound I-114, 1-(1H-1,3-benzodiazol-2-yl)-4-[2-(4-fluorophenyl)ethyl]-3-(oxan-4-yl)-1H-pyrazol-5-ol] |  |  |  |  |  | 78.2% |  | 99.5% | 1770 nM and 1170 nM |  | 4400 nM | 5560 nM |  |  |  |  |  |  |  |
| Oc1c(CCc2ccc(F)cc2)c(-c2cncc(Br)c2)nn1-c1nc2ccccc2[nH]1 [Compound I-118, 1-(1H-1,3-benzodiazol-2-yl)-3-(5-bromopyridin-3-yl)-4-[2-(4-fluorophenyl)ethyl]-1H-pyrazol-5-ol] |  |  |  |  |  | 101% |  | 81.6% | 95.6 nM |  |  | 0.216 nM |  |  | 17100 nM |  |  |  |  |
| Oc1c(CCc2ccc(F)cc2)c(-c2cccnc2)nn1-c1nc2ccccc2[nH]1 [Compound I-121, 1-(1H-1,3-benzodiazol-2-yl)-4-[2-(4-fluorophenyl)ethyl]-3-(pyridin-3-yl)-1H-pyrazol-5-ol] |  |  |  |  | 29.6% | 29.6% | 97.8% | 97.8% | 0.0383 nM | 474 nM |  | 474 nM | 2.58E + 01 minutes | 7.40E- 03 | 2610 nM |  |  |  |  |
| Oc1c(CC2CCCCO2)c(-c2ccc(C(F)(F)F)cc2)nn1-c1nc2ccccc2[nH]1 (centres unmarked) [Compound I-122, 1-(1H-1,3-benzodiazol-2-yl)-4-[(oxan-2-yl)methyl]-3-[4-(trifluoromethyl)phenyl]-1H-pyrazol-5-ol] |  |  |  |  | 95.4% | 95.4% | 75.2% | 75.2% | 1240 nM | 2250 nM |  | 1860 nM | 1.02E + 01 minutes | 1.07E- 02 | 11600 nM |  |  |  |  |
| COCCc1nn(-c2nc3ccccc3[nH]2)c(O)c1CCc1ccc(F)cc1 [Compound I-125, 1-(1H-1,3-benzodiazol-2-yl)-4-[2-(4-fluorophenyl)ethyl]-3-(2-methoxyethyl)-1H-pyrazol-5-ol] |  |  |  |  | 21.2% | 21.2% | 100% | 101.1% | 3070 nM | 3130 nM |  | 3130 nM | 8.87E + 00 minutes | 2.86E- 03 |  |  |  |  |  |
| Oc1c(CCc2ccc(F)cc2)c(-c2cnc(C(F)(F)F)nc2)nn1-c1nc2ccccc2[nH]1 [Compound I-126, 1-(1H-1,3-benzodiazol-2-yl)-4-[2-(4-fluorophenyl)ethyl]-3-[2-(trifluoromethyl)pyrimidin-5-yl]-1H-pyrazol-5-ol] |  |  |  | No Interaction |  | -13.9% |  | 107.8% |  |  |  |  |  |  |  |  |  |  |  |
| Cn1cccc(-c2nn(-c3nc4ccccc4[nH]3)c(O)c2CCc2ccc(F)cc2)c1=O [Compound I-127, 3-[1-(1H-1,3-benzodiazol-2-y1)-4-[2-(4-fluorophenyl)ethyl]-5-hydroxy-1H-pyrazol-3-yl]-1-methyl-1,2-dihydropyridin-2-one] | 2.4% |  | 2100 nM |  |  |  |  |  |  |  |  |  |  |  |  | 100.0% |  |  |  |
| Cc1ccn(CCc2c(-c3ccc(C(F)(F)F)cc3)nn(-c3nc4ccccc4[nH]3)c2O)n1 [Compound I-128, 1-(1H-1,3-benzodiazol-2-yl)-4-[2-(3-methyl-1H-pyrazol-1-yl)ethyl]-3-[4-(trifluoromethyl)phenyl]-1H-pyrazol-5-ol] |  |  |  |  | 33.5% | 33.5% | 97.9% | 97.9% |  |  |  |  | 1.20E + 03 minutes | 5.56E- 03 | 4330 nM |  | 7.64 nM | 0.146 nM | 7.64 nM |
| CC(C)(C)c1nn(-c2nc3ccccc3[nH]2)c(O)c1CCc1ccc(F)cc1 [Compound I-130, 1-(1H-1,3-benzodiazol-2-yl)-3-tert-butyl-4-[2-(4-fluorophenyl)ethyl]-1H-pyrazol-5-ol] |  |  |  |  | 43.6% | 43.6% | 98.7% | 98.7% | 702 nM | 3800 nM |  | 3800 nM | 1.15E + 01 minutes | 9.49E- 03 | 13000 nM |  |  |  |  |
| Oc1c(CCN2CCOCC2)c(-c2ccc(C(F)(F)F)cc2)nn1-c1nc2ccccc2[nH]1 [Compound I-131, 1-(1H-1,3-benzodiazol-2-yl)-4-[2-(morpholin-4-yl)ethyl]-3-[4-(trifluoromethyl)phenyl]-1H-pyrazol-5-ol] |  |  |  |  | 14.2% | 14.2% | 96.4% | 96.4% | 1360 nM | 4930 nM |  | 4930 nM | 5.16E + 00 minutes | 1.06E- 02 | 17800 nM |  |  |  |  |
| O=C1CCCN1CCc1c(-c2ccc(C(F)(F)F)cc2)nn(-c2nc3ccccc3[nH]2)c1O [Compound I-132, 1-{2-[1-(1H-1,3-benzodiazol-2-yl)-5-hydroxy-3-[4-(trifluoromethyl)phenyl]-1H-pyrazol-4-yl]ethyl}pyrrolidin-2-one] |  |  |  |  | 15.7% | 15.7% | 96.5% | 96.5% | 61.8 nM | 1700 nM |  | 1700 nM | 5.46E + 00 minutes | 5.62E- 03 | 8010 nM |  |  |  |  |
| O=S(=O)(c1c(Cl)nc2sccn12)N1CCC(c2nn(-c3nc4ccccc4[nH]3)c(O)c2CCc2ccc(F)cc2)CC1 [Compound I-752, 1-(1H-1,3-benzodiazol-2-yl)-3-[1-({6-chloroimidazo[2,1-b][1,3]thiazol-5-yl}sulfonyl)piperidin-4-yl]-4-[2-(4-fluorophenyl)ethyl]-1H-pyrazol-5-ol] |  |  |  |  |  | 14.7% |  | 97.7% |  |  |  |  |  |  |  |  |  |  |  |
